Results: US9200051B2, “Peptide compound” (TAKEDA PHARMACEUTICAL COMPANY LIMITED, priority 2013, dated 2015)
Where two headings read alike, the source gives them in different places. Square brackets hold non-standard residues; d marks the D form. Peptide text beside a SMILES is read from it. * marks the point of attachment. Tyr(Nα-amidino) = N=C(N)N[C@@H](Cc1ccc(O)cc1)C(=O)*; Cyclopropanecarbonyl = O=C(C1CC1)*; αMeF = C[C@](N)(Cc1ccccc1)C(=O)O; Aib = CC(C)(N)C(=O)O

Assays:
human GIPR = target: T1, human GIPR (Homo sapiens, UniProt P48546); experiment: Agonist activity against human GIPR, CRE-luciferase reporter assay (rise in intracellular cAMP) in hGIPR/CRE-LUC/CHO-K1 cells; assay type: cell-based
T1 construct: expressed in transfected cells; host or cells: CHO-K1 (CRE-LUC/CHO-K1), plasmid hGIPR/pMSRα-neo
T1 sequence (P48546 22-466): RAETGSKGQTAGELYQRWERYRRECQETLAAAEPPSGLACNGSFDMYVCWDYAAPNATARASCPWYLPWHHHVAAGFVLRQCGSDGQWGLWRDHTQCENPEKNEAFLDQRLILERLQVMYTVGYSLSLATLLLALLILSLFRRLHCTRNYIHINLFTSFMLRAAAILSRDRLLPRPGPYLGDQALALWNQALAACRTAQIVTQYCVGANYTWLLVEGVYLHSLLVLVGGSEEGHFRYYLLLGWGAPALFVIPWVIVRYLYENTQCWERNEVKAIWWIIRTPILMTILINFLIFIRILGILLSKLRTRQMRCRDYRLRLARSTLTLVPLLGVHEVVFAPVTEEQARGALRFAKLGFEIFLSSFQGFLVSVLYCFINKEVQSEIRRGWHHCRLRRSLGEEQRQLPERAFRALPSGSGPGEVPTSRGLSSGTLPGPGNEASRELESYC

[1] = Solubility test in Britton-Robinson buffer, observed visually; assay type: physicochemical
Procedure: The test compound of approximately 2 mg was measured precisely. Solvents (10 μL, 20 μL or 40 μL) with different pH (Britton-Robinson buffer (pH 3, 5, 7, 9)) were added to each test compound at 25° C., and the solubility was observed visually.

human GLP-1R = target: T2, human GLP-1R (Homo sapiens, UniProt P43220); experiment: Agonist activity against human GLP-1R, CRE-luciferase reporter assay in hGLP-1R/CRE-luc/CHO-K1 cells; assay type: cell-based
T2 construct: expressed in transfected cells; host or cells: CHO-K1, plasmids hGLP-1/pIRESneo3 and Cre-luc(Zeo)
T2 sequence (P43220 24-463): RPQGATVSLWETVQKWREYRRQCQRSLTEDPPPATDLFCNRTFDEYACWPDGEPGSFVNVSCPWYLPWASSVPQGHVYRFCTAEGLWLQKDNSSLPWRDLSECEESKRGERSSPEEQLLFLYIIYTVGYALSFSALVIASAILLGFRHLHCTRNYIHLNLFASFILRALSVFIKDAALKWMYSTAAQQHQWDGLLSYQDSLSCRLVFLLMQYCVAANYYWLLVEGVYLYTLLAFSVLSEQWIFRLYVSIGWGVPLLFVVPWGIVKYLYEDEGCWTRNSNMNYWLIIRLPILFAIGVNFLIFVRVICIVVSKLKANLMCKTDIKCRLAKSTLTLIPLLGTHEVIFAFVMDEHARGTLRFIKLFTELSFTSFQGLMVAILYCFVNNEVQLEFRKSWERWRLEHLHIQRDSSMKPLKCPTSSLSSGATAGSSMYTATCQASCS

human glucagon R = target: T3, human glucagon R (Homo sapiens, UniProt P47871); experiment: Agonist activity against human glucagon R, CRE-luciferase reporter assay in hGlucagonR/CRE-LUC/CHO-K1 cells; assay type: cell-based
T3 construct: expressed in transfected cells; host or cells: CHO-K1 (CRE-LUC/CHO-K1), plasmid hGlucagonR/pMSRα-neo
T3 sequence (P47871 26-477): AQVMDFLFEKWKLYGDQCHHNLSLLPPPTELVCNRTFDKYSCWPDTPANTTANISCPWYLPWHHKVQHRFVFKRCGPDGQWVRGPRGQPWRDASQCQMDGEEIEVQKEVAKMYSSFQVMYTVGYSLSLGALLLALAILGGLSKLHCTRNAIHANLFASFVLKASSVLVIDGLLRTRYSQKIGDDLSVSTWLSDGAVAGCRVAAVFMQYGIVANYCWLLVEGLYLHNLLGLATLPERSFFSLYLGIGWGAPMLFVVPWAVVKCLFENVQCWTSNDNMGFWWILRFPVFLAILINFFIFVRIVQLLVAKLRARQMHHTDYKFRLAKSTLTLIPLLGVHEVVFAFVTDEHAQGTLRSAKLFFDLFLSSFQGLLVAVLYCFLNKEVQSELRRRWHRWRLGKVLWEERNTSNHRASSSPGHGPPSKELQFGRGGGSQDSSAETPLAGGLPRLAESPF

[2] = hGIPR/CRE-LUC/CHO-K1 cells, 4 hours incubation, 10 nM GIP = 100%, read-out: Agonist activity (EC50) hGIPR
[3] = hGLP-1R/CRE-luc/CHO-K1 cells, 4 hours incubation, 10 nM GLP-1 = 100%, read-out: Agonist activity (EC50) hGLP-1R
[4] = hGlucagonR/CRE-LUC/CHO-K1 cells, 4 hours incubation, 10 nM glucagon = 100%, read-out: Agonist activity (EC50) hGCGR

SMILES	EC50 (human GIPR)	solubility ([1]; Britton-Robinson buffer pH 3, 25° C., visual, read-out: Solubility (mg /mL) pH 3)	solubility ([1]; Britton-Robinson buffer pH 5, 25° C., visual, read-out: Solubility (mg /mL) pH 5)	solubility ([1]; Britton-Robinson buffer pH 7, 25° C., visual, read-out: Solubility (mg /mL) pH 7)	solubility ([1]; Britton-Robinson buffer pH 9, 25° C., visual, read-out: Solubility (mg /mL) pH 9)	EC50 (human GLP-1R)	EC50 (human glucagon R)	EC50 (human GIPR; [2])	EC50 (human GLP-1R; [3])	EC50 (human glucagon R; [4])	solubility ([1]; pH 3)	solubility ([1]; pH 5)	solubility ([1]; pH 7)	solubility ([1]; pH 9)
CC[C@H](C)[C@H](NC(=O)C(C)(C)NC(=O)[C@H](Cc1ccc(O)cc1)NC(=O)[C@H](CC(=O)O)NC(=O)[C@H](CO)NC(=O)[C@@H](NC(=O)[C@](C)(Cc1ccccc1)NC(=O)[C@@H](NC(=O)CNC(=O)[C@H](CCC(=O)O)NC(=O)C(C)(C)NC(=O)[C@@H](N)Cc1ccc(O)cc1)[C@@H](C)O)[C@@H](C)O)C(=O)NC(C)(C)C(=O)N[C@@H](CC(C)C)C(=O)N[C@@H](CC(=O)O)C(=O)N[C@@H](CCCCN)C(=O)N[C@@H](CCC(N)=O)C(=O)N[C@@H](C)C(=O)N[C@@H](CCC(N)=O)C(=O)N[C@@H](C)C(=O)N[C@@H](CCC(=O)O)C(=O)N[C@@H](Cc1ccccc1)C(=O)N[C@H](C(=O)N[C@@H](CCCCN)C(=O)N[C@@H](Cc1c[nH]c2ccccc12)C(=O)N[C@@H](CC(C)C)C(=O)N[C@@H](CC(C)C)C(=O)N[C@@H](CCCCN)C(=O)NCC(=O)NCC(=O)N1CCC[C@H]1C(=O)N[C@@H](CO)C(=O)N[C@@H](CO)C(=O)NCC(=O)N[C@@H](C)C(=O)N1CCC[C@H]1C(=O)N1CCC[C@H]1C(=O)N1CCC[C@H]1C(=O)N[C@@H](CO)C(=O)N[C@@H](CCCCN)C(N)=O)C(C)C [Example 2] (H-Y[Aib]EGT[αMeF]TSDY[Aib]I[Aib]LDKQAQAEFVKWLLKGGPSSGAPPPSK-NH2)	0.0068 nM	> 100 mg/mL	> 100 mg/mL	> 50 mg/mL	> 50 mg/mL	0.016 nM	> 1000 nM	–	–	–	–	–	–	–
CC[C@H](C)[C@H](NC(=O)C(C)(C)NC(=O)[C@H](Cc1ccc(O)cc1)NC(=O)[C@H](CC(=O)O)NC(=O)[C@H](CO)NC(=O)[C@@H](NC(=O)[C@](C)(Cc1ccccc1)NC(=O)[C@@H](NC(=O)CNC(=O)[C@H](CCC(=O)O)NC(=O)C(C)(C)NC(=O)[C@H](Cc1ccc(O)cc1)NC(=O)C1CC1)[C@@H](C)O)[C@@H](C)O)C(=O)NC(C)(C)C(=O)N[C@@H](CC(C)C)C(=O)N[C@@H](CC(=O)O)C(=O)N[C@@H](CCCCN)C(=O)N[C@@H](CCC(N)=O)C(=O)N[C@@H](C)C(=O)N[C@@H](CCC(N)=O)C(=O)N[C@@H](C)C(=O)N[C@@H](CCC(=O)O)C(=O)N[C@@H](Cc1ccccc1)C(=O)N[C@H](C(=O)N[C@@H](CCCCN)C(=O)N[C@@H](Cc1c[nH]c2ccccc12)C(=O)N[C@@H](CC(C)C)C(=O)N[C@@H](CC(C)C)C(=O)N[C@@H](CCCCN)C(=O)NCC(=O)NCC(=O)N1CCC[C@H]1C(=O)N[C@@H](CO)C(=O)N[C@@H](CO)C(=O)NCC(=O)N[C@@H](C)C(=O)N1CCC[C@H]1C(=O)N1CCC[C@H]1C(=O)N1CCC[C@H]1C(=O)N[C@@H](CO)C(=O)N[C@@H](CCCCN)C(N)=O)C(C)C [Example 21] (Cyclopropanecarbonyl-Y[Aib]EGT[αMeF]TSDY[Aib]I[Aib]LDKQAQAEFVKWLLKGGPSSGAPPPSK-NH2)	–	–	–	–	–	–	–	0.024 nM	0.055 nM	> 1000 nM	–	–	–	–
CC[C@H](C)[C@H](NC(=O)C(C)(C)NC(=O)[C@H](Cc1ccc(O)cc1)NC(=O)[C@H](CC(=O)O)NC(=O)[C@H](CO)NC(=O)[C@@H](NC(=O)[C@](C)(Cc1ccccc1)NC(=O)[C@@H](NC(=O)CNC(=O)[C@H](CCC(=O)O)NC(=O)C(C)(C)NC(=O)[C@H](Cc1ccc(O)cc1)NC(=N)N)[C@@H](C)O)[C@@H](C)O)C(=O)NC(C)(C)C(=O)N[C@@H](CC(C)C)C(=O)N[C@@H](CC(=O)O)C(=O)N[C@@H](CCCCN)C(=O)N[C@@H](CCC(N)=O)C(=O)N[C@@H](C)C(=O)N[C@@H](CCC(N)=O)C(=O)N[C@@H](C)C(=O)N[C@@H](CCC(=O)O)C(=O)N[C@@H](Cc1ccccc1)C(=O)N[C@H](C(=O)N[C@@H](CCCCN)C(=O)N[C@@H](Cc1c[nH]c2ccccc12)C(=O)N[C@@H](CC(C)C)C(=O)N[C@@H](CC(C)C)C(=O)N[C@@H](CCCCN)C(=O)NCC(=O)NCC(=O)N1CCC[C@H]1C(=O)N[C@@H](CO)C(=O)N[C@@H](CO)C(=O)NCC(=O)N[C@@H](C)C(=O)N1CCC[C@H]1C(=O)N1CCC[C@H]1C(=O)N1CCC[C@H]1C(=O)N[C@@H](CO)C(=O)N[C@@H](CCCCN)C(N)=O)C(C)C [Example 22] ({Tyr(Nα-amidino)}-[Aib]EGT[αMeF]TSDY[Aib]I[Aib]LDKQAQAEFVKWLLKGGPSSGAPPPSK-NH2)	0.019 nM	–	–	–	–	0.035 nM	> 1000 nM	–	–	–	–	–	–	–
CC(C)C[C@H](NC(=O)[C@H](CC(C)C)NC(=O)[C@H](Cc1c[nH]c2ccccc12)NC(=O)[C@H](CCCCN)NC(=O)[C@@H](NC(=O)[C@H](Cc1ccccc1)NC(=O)[C@H](CCC(=O)O)NC(=O)[C@H](C)NC(=O)[C@H](CCC(N)=O)NC(=O)[C@H](C)NC(=O)[C@H](CCC(N)=O)NC(=O)[C@H](CCCCN)NC(=O)[C@H](CC(=O)O)NC(=O)[C@H](CC(C)C)NC(=O)[C@H](Cc1ccc(O)cc1)NC(=O)[C@H](CCCCN)NC(=O)C(C)(C)NC(=O)[C@H](Cc1ccc(O)cc1)NC(=O)[C@H](CC(=O)O)NC(=O)[C@H](CO)NC(=O)[C@@H](NC(=O)[C@](C)(Cc1ccccc1)NC(=O)[C@@H](NC(=O)CNC(=O)[C@H](CCC(=O)O)NC(=O)C(C)(C)NC(=O)[C@@H](N)Cc1ccc(O)cc1)[C@@H](C)O)[C@@H](C)O)C(C)C)C(=O)N[C@@H](CCCCN)C(=O)NCC(=O)NCC(=O)N1CCC[C@H]1C(=O)N[C@@H](CO)C(=O)N[C@@H](CO)C(=O)NCC(=O)N[C@@H](C)C(=O)N1CCC[C@H]1C(=O)N1CCC[C@H]1C(=O)N1CCC[C@H]1C(=O)N[C@@H](CO)C(=O)N[C@@H](CCCCN)C(N)=O [Example 24] (H-Y[Aib]EGT[αMeF]TSDY[Aib]KYLDKQAQAEFVKWLLKGGPSSGAPPPSK-NH2)	–	–	–	–	–	–	–	0.0099 nM	0.011 nM	> 1000 nM	> 200 mg/mL	> 200 mg/mL	> 200 mg/mL	> 200 mg/mL
CC(C)C[C@H](NC(=O)[C@H](CC(C)C)NC(=O)[C@H](Cc1c[nH]c2ccccc12)NC(=O)[C@H](CCCCN)NC(=O)[C@@H](NC(=O)[C@H](Cc1ccccc1)NC(=O)[C@H](CCC(=O)O)NC(=O)[C@H](CCC(N)=O)NC(=O)[C@H](CCC(N)=O)NC(=O)[C@H](C)NC(=O)[C@H](CCC(N)=O)NC(=O)[C@H](CCCCN)NC(=O)[C@H](CC(=O)O)NC(=O)[C@H](CC(C)C)NC(=O)[C@H](Cc1ccc(O)cc1)NC(=O)[C@H](CCCCN)NC(=O)C(C)(C)NC(=O)[C@H](Cc1ccc(O)cc1)NC(=O)[C@H](CC(=O)O)NC(=O)[C@H](CO)NC(=O)[C@@H](NC(=O)[C@](C)(Cc1ccccc1)NC(=O)[C@@H](NC(=O)CNC(=O)[C@H](CCC(=O)O)NC(=O)C(C)(C)NC(=O)[C@@H](N)Cc1ccc(O)cc1)[C@@H](C)O)[C@@H](C)O)C(C)C)C(=O)N[C@@H](CCCCN)C(=O)NCC(=O)NCC(=O)N1CCC[C@H]1C(=O)N[C@@H](CO)C(=O)N[C@@H](CO)C(=O)NCC(=O)N[C@@H](C)C(=O)N1CCC[C@H]1C(=O)N1CCC[C@H]1C(=O)N1CCC[C@H]1C(=O)N[C@@H](CO)C(=O)N[C@@H](CCCCN)C(N)=O [Example 25] (H-Y[Aib]EGT[αMeF]TSDY[Aib]KYLDKQAQQEFVKWLLKGGPSSGAPPPSK-NH2)	–	–	–	–	–	–	–	0.013 nM	0.014 nM	> 1000 nM	> 200 mg/mL	> 200 mg/mL	> 200 mg/mL	> 200 mg/mL
